Test results: ChEMBL document CHEMBL1128657, “Synthesis and in vitro biological evaluation of new triphenylethylene platinum (II) complexes” (Bioorg Med Chem Lett, 1995)

Columns and labels:
MDA-MB-231 = experiment: In vitro inhibition of estrogen receptor negative […] human mammary carcinoma cell proliferation; assay type: functional, cell-based
MCF7 = experiment: In vitro inhibition of estrogen receptor positive MCF-7 human mammary carcinoma cell proliferation; assay type: functional, cell-based

IC50 (MDA-MB-231; Homo sapiens, MDA-MB-231)	IC50 (MCF7; Homo sapiens, MCF7)	IC50 (MDA-MB-231; mda-mb-231)	IC50 (MCF7; mcf7)	Compound
2.3 µM	14 µM			COc1ccc(C(=C(CCCCCCCCCCCNCCN)c2ccccc2)c2ccc(OC)cc2)cc1
28 µM	17 µM			CC/C(=C(\c1ccccc1)c1ccc(OCCN(C)C)cc1)c1ccccc1 [TAMOXIFEN]
		3.4 µM	3 µM	CISPLATIN
